Consider 31 compounds from patent US20080214583A1, “7H-Pyrrolo[2,3-D]Pyrimidine Derivatives, As Well As Their Therapeutically Acceptable Salts, Pharmaceutical Preparations Containing Them And Process For Production The Active Agent” (priority 2004, published 2008).

For `Cc1cc(C(=NN)c2ncnc3c2c(C)c(C)n3Cc2ccccc2)cc(C)c1O` [Example 29, 4-[(7-benzyl-5,6-dimethyl-7H-pyrrolo[2,3-d]pyrimidine-4-yl)-hydrazonomethyl]-2,6-dimethyl-phenol], the melting point – broadly, the temperature, or range, at which the solid turns liquid – fell in the range of 237 to 240 °C.

The compound `Cc1c(C)n(Cc2ccccc2)c2ncnc(C(=NN)c3ccc(N(C)C)cc3)c12` [Example 31, {4-[(7-benzyl-5,6-dimethyl-7H-pyrrolo[2,3-d]pyrimidine-4-yl)-hydrazonomethyl]-phenyl}-dimethyl-amine] displayed a melting point of 219 to 221 °C.

On to `Cc1c(C)n(CCCN2CCOCC2)c2ncnc(Nc3cc(C(C)(C)C)nn3-c3cccc([N+](=O)[O-])c3)c12` [Example 16, [5-tert.-butyl-2-(3-nitro-phenyl)-2H-pyrazole-3-yl]-[5,6-dimethyl-7-(3-morpholine-4-yl-propyl)-7H-pyrrolo[2,3-d]pyrimidine-4-yl]-amine], for which the melting point lay within 120.9 to 125.3 °C.

`COc1ccccc1C=NNc1ncnc2c1c(C)c(C)n2Cc1ccccc1` [Example 17, N-(7-benzyl-5,6-dimethyl-7H-pyrrolo[2,3-d]pyrimidine-4-yl)-N′-(2-methoxy-benzylidene)-hydrazine] came in with a melting point of 214 to 216 °C.

On to `Cc1c(C)n(-c2cccc(Cl)c2)c2ncnc(Nc3cc(C(C)(C)C)nn3-c3cccc([N+](=O)[O-])c3)c12` [Example 4, [5-tert.-butyl-2-(3-nitro-phenyl)-2H-pyrazole-3-yl]-[7-(3-chlorophenyl)-5,6-dimethyl-7H-pyrrolo[2,3-d]pyrimidine-4-yl]-amine], for which the melting point is 189 to 190 °C.

In the case of `Cc1c(C)n(Cc2ccccc2)c2ncnc(NN=C3C(=O)Nc4ccccc43)c12` [Example 46, 3-[(7-benzyl-5,6-dimethyl-7H-pyrrolo[2,3-d]pyrimidine-4-yl)-hydrazono]-1,3-dihydro-indole-2-on], the melting point was in the range of 292 to 293 °C.

As for `Cc1c(C)n(Cc2ccccc2)c2ncnc(NN=Cc3cccc([N+](=O)[O-])c3)c12` [Example 32, N-(7-benzyl-5,6-dimethyl-7H-pyrrolo[2,3-d]pyrimidine-4-yl)-N′-(3-nitro-benzylidene)-hydrazine], the melting point is 103 to 109.5 °C.

`Cc1c(C)n(-c2cccc(Cl)c2)c2ncnc(NN=C3C(=O)Nc4ccc(Br)cc43)c12` [Example 38, 5-bromo-3-{[5,6-dimethyl-7-(3-chloro-phenyl)-7H-pyrrolo[2,3-d]pyrimidine-4-yl]-hydrazono}-1,3-dihydro-indole-2-on] had a melting point of 292 to 294.5 °C.

`Cc1c(C)n(-c2cccc(Cl)c2)c2ncnc(Nc3c(C#N)c(-c4ccccc4)c(-c4ccccc4)n3Cc3ccccc3)c12` [Example 62, 1-benzyl-2-[5,6-dimethyl-7-(3-chloro-phenyl)-7H-pyrrolo[2,3-d]pyrimidine-4-yl-amino]-4,5-diphenyl-1H-pyrrol-3-carbonitrile] yielded a melting point of 187.4 to 189.3 °C.

Turning to `Cc1c(C)n(-c2cccc(Cl)c2)c2ncnc(NN=C3C(=O)Nc4c(Cl)ccc(Cl)c43)c12` [Example 41, 4,7-dichloro-3-{[5,6-dimethyl-7-(3-chloro-phenyl)-7H-pyrrolo[2,3-d]pyrimidine-4-yl]-hydrazono}-1,3-dihydro-indole-2-on], the melting point was 284 to 285 °C.

In the case of `Cc1c(C)n(Cc2ccccc2)c2ncnc(Nc3c(C#N)c(-c4ccccc4)c(-c4ccccc4)n3Cc3ccccc3)c12` [Example 74, 1-benzyl-2-(7-benzyl-5,6-dimethyl-7H-pyrrolo[2,3-d]pyrimidine-4-yl-amino)-4,5-diphenyl-1H-pyrrol-3-carbonitrile], the melting point fell in the range of 197.1 to 197.6 °C.

`Cc1c(C#N)c(Nc2ncnc3c2c2ccccc2n3Cc2ccccc2)n(-c2cccc(Cl)c2)c1C` [Example 64, 2-(9-benzyl-9H-1,3,9-triaza-fluorene-4-yl-amino)-1-(3-chloro-phenyl)-4,5-dimethyl-1H-pyrrol-3-carbonitrile]: the melting point lay within 252.2 to 253.1 °C.

`Cc1c(C)n(-c2cccc(Cl)c2)c2ncnc(NN=C3C(=O)Nc4ccc(OC(F)(F)F)cc43)c12` [Example 44, 3-{[5,6-dimethyl-7-(3-chloro-phenyl)-7H-pyrrolo[2,3-d]pyrimidine-4-yl]-hydrazono}-5-trifluoromethoxy-1,3-dihydro-indole-2-on] had a melting point of 262 to 276 °C.

Take `Cc1c(C)n(-c2cccc(Cl)c2)c2ncnc(NN=C3C(=O)Nc4ccc(Cl)cc43)c12` [Example 40, 5-chloro-3-{[5,6-dimethyl-7-(3-chloro-phenyl)-7H-pyrrolo[2,3-d]pyrimidine-4-yl]-hydrazono}-1,3-dihydro-indole-2-on]: the melting point lay in the range of 314 to 315 °C.

`Cc1ccc2c(c1)C(=NNc1ncnc3c1c(C)c(C)n3-c1cccc(Cl)c1)C(=O)N2` [Example 42, 3-{[5,6-dimethyl-7-(3-chloro-phenyl)-7H-pyrrolo[2,3-d]pyrimidine-4-yl]-hydrazono}-5-methyl-1,3-dihydro-indole-2-on] returned a melting point of 302 to 303 °C.

For `Cc1c(C)n(CCCN2CCOCC2)c2ncnc(NN=Cc3ccc(O)c([N+](=O)[O-])c3)c12` [Example 13, 4-{[5,6-dimethyl-7-(3-morpholine-4-yl-propyl)-7H-pyrrolo[2,3-d]pyrimidine-4-yl]hydrazonomethyl}-2-nitro-phenol], the melting point lay within 158.8 to 161.5 °C.

`Cc1c(C)n(Cc2ccccc2)c2ncnc(NN=C3C(=O)Nc4ccc(Cl)cc43)c12` [Example 48, 3-[(7-benzyl-5,6-dimethyl-7H-pyrrolo[2,3-d]pyrimidine-4-yl)-hydrazono]-5-chloro-1,3-dihydro-indole-2-on] came in with a melting point of 302 to 303 °C.

For the compound `N#Cc1c(-c2ccccc2)c(-c2ccccc2)n(Cc2ccccc2)c1Nc1ncnc2c1c1ccccc1n2Cc1ccccc1` [Example 66, 1-benzyl-2-(9-benzyl-9H-1,3,9-triaza-fluorene-4-yl-amino)-4,5-diphenyl-1H-pyrrol-3-carbonitrile], the melting point was > 90 °C.

`Cc1c(C#N)c(Nc2ncnc3c2c(C)c(C)n3Cc2ccccc2)n(Cc2ccccc2)c1C` [Example 75, 1-benzyl-2-(7-benzyl-5,6-dimethyl-7H-pyrrolo[2,3-d]pyrimidine-4-yl-amino)-4,5-dimethyl-1H-pyrrol-3-carbonitrile] returned a melting point of 236 to 239.1 °C.

Consider `Cc1c(C#N)c(Nc2ncnc3c2c(C)c(C)n3-c2cccc(Cl)c2)n(Cc2ccccc2)c1C` [Example 63, 1-benzyl-2-[5,6-dimethyl-7-(3-chloro-phenyl)-7H-pyrrolo[2,3-d]pyrimidine-4-yl-amino]-4,5-dimethyl-1H-pyrrol-3-carbonitrile], for which the melting point was 228.1 to 229 °C.

Regarding `Cc1c(C)n(Cc2ccccc2)c2ncnc(C(=NN)c3ccc(C#N)cc3)c12` [Example 35, 4-[(7-benzyl-5,6-dimethyl-7H-pyrrolo[2,3-d]pyrimidine-4-yl)-hydrazonomethyl]-benzonitrile], the melting point lay within 223.5 to 225 °C.

`Cc1c(C)n(-c2cccc(Cl)c2)c2ncnc(NN=C3C(=O)Nc4ccc(F)cc43)c12` [Example 43, 3-{[5,6-dimethyl-7-(3-chloro-phenyl)-7H-pyrrolo[2,3-d]pyrimidine-4-yl]-hydrazono}-5-fluoro-1,3-dihydro-indole-2-on] returned a melting point of 271 to 279 °C.

For the compound `Cc1c(C)n(Cc2ccccc2)c2ncnc(NN=C3C(=O)Nc4c(Cl)ccc(Cl)c43)c12` [Example 50, 3-[(7-benzyl-5,6-dimethyl-7H-pyrrolo[2,3-d]pyrimidine-4-yl)-hydrazono]-4,7-dichloro-1,3-dihydro-indole-2-on], the melting point was 298 °C.

In turn, `Cc1c(C)n(Cc2ccccc2)c2ncnc(NN=C3C(=O)Nc4ccc(Br)cc43)c12` [Example 45, 3-[(7-benzyl-5,6-dimethyl-7H-pyrrolo[2,3-d]pyrimidine-4-yl)-hydrazono]-5-bromo-1,3-dihydro-indole-2-on] registered a melting point of 288 to 290 °C.

The compound `Cc1c(C)n(Cc2ccccc2)c2ncnc(NN=C3C(=O)Nc4cc(Cl)cc(Cl)c43)c12` [Example 49, 3-[(7-benzyl-5,6-dimethyl-7H-pyrrolo[2,3-d]pyrimidine-4-yl)-hydrazono]-4,6-dichloro-1,3-dihydro-indole-2-on] yielded a melting point of 299 °C.

For the compound `Cc1c(C)n(-c2cccc(Cl)c2)c2ncnc(NN=C3C(=O)Nc4ccccc43)c12` [Example 39, 3-{[5,6-dimethyl-7-(3-chloro-phenyl)-7H-pyrrolo[2,3-d]pyrimidine-4-yl]-hydrazono}-1,3-dihydro-indole-2-on], the melting point was 281 to 293 °C.

In turn, `Cc1c(C)n(Cc2ccccc2)c2ncnc(C(=NN)c3ccc(O)c([N+](=O)[O-])c3)c12` [Example 28, 4-[(7-benzyl-5,6-dimethyl-7H-pyrrolo[2,3-d]pyrimidine-4-yl)-hydrazonomethyl]-2-nitro-phenol] registered a melting point of 202 to 205 °C.

The compound `Cc1c(C)n(-c2cccc(Cl)c2)c2ncnc(C(=NN)c3ccc(O)c([N+](=O)[O-])c3)c12` [Example 21, 4-{[5,6-dimethyl-7-(3-chloro-phenyl)-7H-pyrrolo[2,3-d]pyrimidine-4-yl]-hydrazonomethyl}-2-nitro-phenol] came in with a melting point of 204.2 to 206.5 °C.

As for `Cc1c(C)n(Cc2ccccc2)c2ncnc(NN=Cc3ccc(C(F)(F)F)cc3)c12` [Example 26, N-(7-benzyl-5,6-dimethyl-7H-pyrrolo[2,3-d]pyrimidine-4-yl)-N′-(4-trifluoromethyl-benzylidene)-hydrazine], the melting point lay in the range of 165 to 166 °C.

As to `COc1cc(C(=NN)c2ncnc3c2c(C)c(C)n3Cc2ccccc2)ccc1O` [Example 33, 4-[(7-benzyl-5,6-dimethyl-7H-pyrrolo[2,3-d]pyrimidine-4-yl)-hydrazonomethyl]-2-methoxy-phenol], the melting point was in the range of 220 to 221 °C.

Regarding `COc1cc(C(=NN)c2ncnc3c2c(C)c(C)n3-c2cccc(Cl)c2)ccc1O` [Example 24, 4-{[5,6-dimethyl-7-(3-chloro-phenyl)-7H-pyrrolo[2,3-d]pyrimidine-4-yl]-hydrazonomethyl}-2-methoxy-phenol], the melting point was in the range of 146 to 187 °C.
